{"source": "patent US20230149374A1", "about": "“METHODS AND COMPOSITIONS FOR TREATING ATHEROSCLEROSIS” (Sanford Burnham Prebys Medical Discovery Institute, priority 2021, published 2023)", "tested_on": "ApoE-deficient mice", "experiment": "In vivo aortic calcification imaging, 18F-NaF μPET / μCT", "parameters": "species or system mouse", "details": "ApoE-deficient mice on HFD, 30 mg/kg/day in food from 10 to 25 weeks of age; control 6 out of 11", "description": "Four cohorts of mice were used in these studies (FIGS. 8A and 9A). Cohorts 1 and 2 were devoted to the in vivo and ex vivo characterization of TNAP-associated plaque calcification. 6-week-old ApoE-deficient male mice were received at the animal facility and placed in conventional cages with 5 mice per cage. Mice were maintained on a 12-hrs light-dark cycle (7:00 am-7:00 pm) and were supplied with food and water ad libitum. From 10 weeks of age, they were fed ad libitum with a high fat diet (HFD, D12108C, Research Diets, New Brunswick, USA) containing 40% fat (kcal) and 1.25% cholesterol (weight). In cohort 1, 8 mice were sacrificed every 2 weeks between weeks 17 to 31, for histological and molecular analyses. Total body weight was measured weekly after starting the HFD. The sacrifice was done after anesthesia with isoflurane and intracardiac blood puncture by CO2 inhalation. Tissues were harvested as described below. The abdominal aorta was used for quantitative polymerase chain reaction (PCR) analyses. […] Plaque calcification was analyzed at 25 weeks, and possible side effects of TNAP inhibition were explored in mice aged 31 weeks. […]\nMice were placed into a chamber connected to an isoflurane anesthesia unit. […] Images were analyzed using Inveon Research workplace (Siemens). The presence of atherosclerotic plaques was evaluated both in CT and PET images. […]", "data": [{"smiles": "COc1ccc(Cl)cc1S(=O)(=O)Nc1cncc(C(N)=O)c1", "note": "[SBI-425]", "values": [{"measurement": "mice having calcifications, in vivo 18F-NaF μPET and μCT", "result": "0 out of 12"}]}]}
